Experimental data as given in patent publication US9834823B2, “Primers, assays and methods for detecting an E. coli subtype” (priority 2012, dated 2017).
Several values for one entry are separate records, joined by “and”; a condition that tells them apart may be missing. Equal entries are not always repeated.

Legend:
Assay type in all cases: cell-based
[1] = tested on: extraintestinal Escherichia coli isolates; assay: Antimicrobial susceptibility testing (CLSI breakpoints), Olmsted County isolates
[2] = tested on: Escherichia coli clinical isolates (ESBL-positive and ESBL-negative; ST131 subclones); assay: Broth microdilution antimicrobial susceptibility, NorthShore ESBL case-control isolates
From the text: As reported elsewhere, the 267 E. coli study isolates were collected between 2007 and 2010 as part of a prospective case-control study conducted at NorthShore University HealthSystem (Banerjee, R J et al. “Predictors and molecular epidemiology of community-onset extended-spectrum beta-lactamase (ESBL) Escherichia coli infection in a Midwestern community,” 2013 Infect Control Hosp Epidemiol; in press). Cases were defined as adults with ESBL-producing E. coli cultured from any specimen type. Controls were defined as the 1 or 2 patients with non-ESBL E. coli isolates identified just subsequent to the case isolate, and with the same specimen type and location of collection. Isolates obtained in the outpatient setting or within 48 hours of hospital admission were considered causes of community-associated infection. Further study details are as described (Banerjee, R J et al. “Predictors and molecular epidemiology of community-onset extended-spectrum beta-lactamase (ESBL) Escherichia coli infection in a Midwestern community,” 2013 Infect Control Hosp Epidemiol; in press).
The resistance score was the total number of agents to which an isolate was resistant. This study was approved by the NorthShore and VA Medical Center institutional review boards.

[3] = tested on: Escherichia coli clinical isolates from U.S. veterans; assay: Susceptibility testing (broth microdilution or disk diffusion) at VAMCs with population back-calculations

Substance: trimethoprim-sulfamethoxazole [TMP/SMX]
- No. of resistant isolates (column %) ([1]; All isolates, N = 299): 88 (29)
- Resistance prevalence among H30 ST131 ([1]; H30 ST131 subclone, N = 70): 47%
- No. of resistant isolates (column %) ([1]; Other STs, N = 129): 37 (29)
- No. of resistant isolates (column %) ([1]; ST9, N = 32): 2 (6)
- No. of resistant isolates (column %) ([1]; ST69, N = 15): 8 (53)
- Prevalence of resistance, ST69 ([1]; ST69 isolates): 53%
- No. of resistant isolates (column %) ([1]; ST73, N = 25): 3 (12)
- No. of resistant isolates (column %) ([1]; ST127, N = 18): 1 (6)
- No. of resistant isolates (column %) ([1]; ST131, N = 80): 37 (46)
- Prevalence of resistance, ST131 ([1]; ST131 isolates): 46%
- Resistance prevalence among non-H30 ST131 ([1]; non-H30 ST131, N = 10): 40%
- No. resistant (column %) ([2]; ESBL-negative isolates, All N = 167): 31 (19)
- No. resistant (column %) ([2]; ESBL-negative isolates, Non-ST131 N = 145): 18 (12)
- No. resistant (column %) ([2]; ESBL-negative isolates, ST131 N = 22): 13 (59)
- No. resistant (column %) ([2]; ESBL-positive isolates, All N = 100): 63 (63)
- No. resistant (column %) ([2]; ESBL-positive isolates, Non-ST131 N = 51): 39 (76)
- No. resistant (column %) ([2]; ESBL-positive isolates, ST131 N = 49): 24 (49)
- No. of resistant isolates (column %), H30-Rx (N = 47) ([2]; H30-Rx subclone isolates (N = 47) within the H30 ST131 subclone): 21 (45) No. (column %)
- No. of resistant isolates (column %), H30, non-Rx (N = 15) ([2]; H30 non-Rx isolates (N = 15) within the H30 ST131 subclone): 10 (67) No. (column %)
- No. of resistant isolates (column %), H30 (N = 62) ([2]; H30 subclone isolates (N = 62) among 71 E. coli ST131 isolates): 31 (50) No. (column %)
- No. of resistant isolates (column %), Non-H30 (N = 9) ([2]; non-H30 isolates (N = 9) among 71 E. coli ST131 isolates): 6 (67) No. (column %)
- Prevalence of resistance, H30 ST131 ([3]; H30 ST131 subclone isolates (H30 subclone vs. others)): 47
- Prevalence of resistance, ST131 ([3]; ST131 isolates (ST131 vs. others)): 42
- Prevalence of resistance, Total (%) ([3]; all isolates): 22%
- Prevalence of resistance, Others (%) ([3]; all non-H30 isolates (H30 subclone vs. others)): 14%
- Prevalence of resistance, Others (%) ([3]; all non-ST131 isolates (ST131 vs. others)): 13%
- ST131's overall contribution to antimicrobial resistance within the source E. coli population ([3]; back-calculations, listed as TMP-SMZ): > 50% and 56%
- Estimated fraction due to ST131 ([3]; fraction of resistance phenotype due to ST131): .56
- Overall prevalence in population, % ([3]; resistance phenotype, back-calculated with 29% FQ resistance): 22%
- Prevalence ratio of resistance ([3]; resistance prevalence among H30 ST131 subclone isolates relative to all other isolates): 3.3
- Prevalence ratio of resistance ([3]; resistance prevalence among ST131 isolates relative to all other isolates): 2.4
